Measured values: patent US4626540A, “Substituted 1-amino-4-nitro-acridinones and methods of treating bacterial infections and leukemia with them” (Warner-Lambert Company, priority 1984, dated 1986)
pIC50: −log10 of the molar value. In brackets after ≈: the same amount, converted by molar mass.

Tests used:
[1] = tested on: Escherichia coli; assay: In vitro antibacterial (ABMF) microdilution test, Escherichia coli; assay type: cell-based; conditions: Mueller-Hinton broth, 37° C., 16-24 hours, read-out: ABMF minimal inhibitory conc, E. coli
Description: (§1) Still another test protocol is the in vitro antibacterial (ABMF) test which is a recognized standard microdilution susceptibility procedure in Mueller-Hinton broth against Gram-positive and Gram-negative bacterial test organisms. The procedure is a modification of a state-of-the-art procedure reported in Manual of Clinical Microbiology, Lennette, E. H., ed., by Barry, A. L. and C. Thornsberry at pages 463-474 and by Gavan, T. L. and A. L. Barry at pages 459-462, American Society for Microbiology, Washington, 1980.
(§2) In the test, a given bacterial culture is used to inoculate individual test wells of microdilution trays containing growth medium and test compound, the latter in a microdilution series: 1000, 333, 111, 37, 12, 4, 1.4, and 0.46 micrograms per milliliter. […] For convenience, values are reported for Escherichia coli, Corynebacterium Sp. ATCC 21698, Branhamella catarrhalis, Streptococcus pneumoniae, and Bacillus cereus.

[2] = tested on: Branhamella catarrhalis; assay: In vitro antibacterial (ABMF) microdilution test, Branhamella catarrhalis; assay type: cell-based; conditions: Moraxella catarrhalis; Mueller-Hinton broth, 37° C., 16-24 hours; read-out: ABMF minimal inhibitory conc, B. cat.
Description: as §1, §2

[3] = tested on: lymphocytic leukemia P388; assay: In vivo lymphocytic leukemia P388 test; set-up: species or system CD2 F1 mice; conditions: Mus musculus, P388, ip, intraperitoneal, once daily for five days, survival time treated/control, read-out: P388 in vivo T/C × 100
Protocol: Another test protocol is the in vivo lymphocytic leukemia P388 test. the animals used are either male or female CD2 F1 mice, six or seven animals per test group. The tumor transplant is by intraperitoneal injection of dilute ascitic fluid containing cells of lymphocytic leukemia P388. The test compounds are administered intraperitoneally once daily for five consecutive days at various doses following tumor inoculation. The animals are weighed and survivors are recorded on a regular basis for 30 days. A compound is designated "toxic" if, at a given dose, all animals die prior to four days after the first injection of drug. A ratio of survival time for treated (T)/control (C) animals is calculated. A criterion for efficacy is a ratio T/C times 100 greater than or equal to 125. See Cancer Chemotherapy Reports, Part 3, 3, 1 (1972) for a comprehensive discussion of the protocol.

[4] = tested on: L1210 murine leukemia cell lines; assay: In vitro antitumor screening (PDC test), L1210 murine leukemia cell growth; assay type: cell-based; conditions: Mus musculus, 72 h; L1210 cells, 37° C., three days; value is ID50 multiplied by 10^7
Protocol: Another test protocol is the in vitro antitumor screening (PDC test) of compounds of the present invention on L1210 murine leukemia cell lines. L1210 cells, a murine leukemia cell line, were grown in RPMI 1640 supplemented with 5% fetal bovine serum and gentamicin (50 μg/ml).
Drug dilutions were prepared in the apropriate solvent and 20 μl of each dilution were added to 24-well Linbro tissue culture plats, followed by the addition of M 2.0 ml of cell suspension containing 3×10^4 cells per ml. Solvent and medium controls were included in each test. After incubation at 37° C. for three days in 5% CO2, the contents of each well were removed and the cells counted in a ZBI Coulter counter. Percent growth was calculated relative to the controls and the levels of drug activity wre expressed as ID50 in moles per liter using probit paper.

[5] = tested on: Corynebacterium Sp. ATCC 21698; assay: In vitro antibacterial (ABMF) microdilution test, Corynebacterium Sp.; assay type: cell-based; conditions: ATCC21698, Mueller-Hinton broth, 37° C., 16-24 hours, read-out: ABMF minimal inhibitory conc, Coryn. Species
Description: as §1, §2

[6] = tested on: Streptococcus pneumoniae; assay: In vitro antibacterial (ABMF) microdilution test, Streptococcus pneumoniae; assay type: cell-based; conditions: Mueller-Hinton broth, 37° C., 16-24 hours, read-out: ABMF minimal inhibitory conc, S. pneu.
Description: as §1, §2

[7] = tested on: HCT-8 cells; assay: In vitro proliferating human colon adenocarcinoma (HCA) cell screen, HCT-8 cells; assay type: cell-based; conditions: 60-65 hours at 37° C., value is ID50 multiplied by 10^7;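 further: ID50 is the molar concentration giving 50% growth inhibition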
Protocol: One test protocol is the in vitro proliferating human colon adenocarcinoma (HCA) cell screen. In this test, HCT-8 cells (HCA cell line received from Yale University) are trypsinized using trypsin-EDTA. A single cell suspension is achieved by passing the cells through a 26-gauge needle with a 20-cc syringe. A cell suspension is prepared using RPMI 1640+10% FCS+50 μg/ml gentamicin sulfate with a cell concentration of approximately 5,000 cells/ml. The cell suspension is dispensed in Linbro 24-well plates; 1 ml/well. The plates are incubated for approximately 48 hours at 37° C. in a 5% CO2 atmosphere. At this time test compounds are added in the appropriate concentration. Ten μl of the appropriate dilution is added to each well for a titration test. The plates are reincubated an additional 60-65 hours at 37° C. in a 5% CO2 atmosphere. The cells are lysed using a mix of cationic surfactant, glacial acetic acid and sodium chloride. Two ml of the lysed cell suspension from each well is added to 8 ml of diluent. The number of nuclei is determined using a Coulter counter (ZBI model), and a percent growth for each drug concentration is calculated.

[8] = tested on: Bacillus cereus; assay: In vitro antibacterial (ABMF) microdilution test, Bacillus cereus; assay type: cell-based; conditions: Mueller-Hinton broth, 37° C., 16-24 hours, read-out: ABMF minimal inhibitory conc, B. cer.
Description: as §1, §2

MIC [1] [µg/mL] | MIC [2] [µg/mL] | pIC50 [4] | MIC [5] [µg/mL] | MIC [6] [µg/mL] | pIC50 [7] | MIC [8] [µg/mL] | Structure (SMILES) | response vs control in vivo at 1.56 mg/kg ([3]; 1.56 mg/kg) [%] | response vs control in vivo at 3.12 mg/kg ([3]; 3.12 mg/kg) [%] | response vs control in vivo at 6.25 mg/kg [3] [%] | response vs control in vivo at 25 mg/kg [3] [%] | response vs control in vivo at 50 mg/kg [3] [%] | response vs control in vivo at 100 mg/kg [3] [%] | response vs control in vivo at 12.5 mg/kg [3] [%] | response vs control in vivo at 200 mg/kg ([3]; 200 mg/kg) [%]
< 0.46 | < 0.46 | 7.72 | 0.46 (≈ 1.29 µM) | 0.46 (≈ 1.29 µM) | 8.55 | < 0.46 | CN(C)CCCNc1ccc([N+](=O)[O-])c2[nH]c3ccc(O)cc3c(=O)c12 [Example 21] | 162 | 187 | 234 | – | – | – | – | –
< 0.46 | < 0.46 | 6.49 | < 0.46 | 1.4 | 6.70 | 12.3 | CCOc1ccc2[nH]c3c([N+](=O)[O-])ccc(NCCCN(C)C)c3c(=O)c2c1.CS(=O)(=O)O [Example 23, 1-[[(Dimethylamino)propyl]amino]-7-ethoxy-4-nitro-9(10H)acridinone, methanesulfonate] | – | – | – | 157 | 210 | – | 135 | –
1.4 | < 0.46 | 5.92 | < 0.46 | < 0.46 | 6.59 | 4.1 | COc1ccc2[nH]c3c([N+](=O)[O-])ccc(NCCCN(C)C)c3c(=O)c2c1 [Example 22, 1-[[3-(Dimethylaminopropyl)amino]-7-methoxy-4-nitro-9(10H)-acridinone, methanesulfonate (1:1), hemihydrate] | – | – | 138 | 178 | 225 | 205 | 156 | –

The remaining lines, values behind:

Structure (SMILES) | MIC [1] [µg/mL] | MIC [2] [µg/mL] | pIC50 [4] | MIC [5] [µg/mL] | MIC [6] [µg/mL] | pIC50 [7] | MIC [8] [µg/mL] | response vs control in vivo at 1.56 mg/kg ([3]; 1.56 mg/kg) [%] | response vs control in vivo at 3.12 mg/kg ([3]; 3.12 mg/kg) [%] | response vs control in vivo at 6.25 mg/kg [3] [%] | response vs control in vivo at 25 mg/kg [3] [%] | response vs control in vivo at 50 mg/kg [3] [%] | response vs control in vivo at 100 mg/kg [3] [%] | response vs control in vivo at 12.5 mg/kg [3] [%] | response vs control in vivo at 200 mg/kg ([3]; 200 mg/kg) [%]
CN(C)CCNc1ccc([N+](=O)[O-])c2[nH]c3ccccc3c(=O)c12 [Example 8, 1-[[2-(Dimethylamino)ethyl]amino]-4-nitro-9(10H)-acridinone, methanesulfonate (1:1), hemihydrate] | 1.4 | < 0.46 | 6.41 | < 0.46 | < 0.46 | 6.47 | 4.1 | – | – | – | 142 | 185 | – | – | –
CCN(CC)CCNc1ccc([N+](=O)[O-])c2[nH]c3ccc(N(C)C)cc3c(=O)c12.CS(=O)(=O)O [Example 7, 1-[[2-(Diethylamino)ethyl]amino]-7-(dimethylamino)-4-nitro-9(10H)-acridinone, methanesulfonate (1:1)] | > 1000 | > 1000 | 5.89 | 111 | 37 | 6.25 | > 1000 | – | – | – | – | 33 | 169 | – | –
CCCCOc1ccc2[nH]c3c([N+](=O)[O-])ccc(NCCCN(C)C)c3c(=O)c2c1.CS(=O)(=O)O [Example 24, 7-Butoxy-1-[[3-(dimethylamino)propyl]amino]-4-nitro-9(10H)-acridinone, methanesulfonate] | 12.3 | 12.3 | 6.46 | 4.1 | 1.4 | 6.43 | 111 | – | – | – | 151 | – | – | 123 | –
CN(C)CCCNc1ccc([N+](=O)[O-])c2[nH]c3ccccc3c(=O)c12.CS(=O)(=O)O [Example 20, 1-[[3-(Dimethylamino)propyl]amino]-4-nitro-9(10H)-acridinone, methanesulfonate (1:1)] | 1.4 | < 0.46 | 6.24 | < 0.46 | < 0.46 | 6.70 | 4.1 | – | – | – | – | 144 | 189 | – | –
CCN(CC)CCNc1ccc([N+](=O)[O-])c2[nH]c3ccc(OC)cc3c(=O)c12.CS(=O)(=O)O [Example 3, 1-[[2-(Diethylamino)ethyl]amino]-7-methoxy-4-nitro-9(10H)-acridinone, methanesulfonate (1:1)] | 111 | < 0.46 | 5.62 | < 0.46 | < 0.46 | 5.96 | 4.1 | – | – | – | 151 | 178 | 237 | 126 | 296
CCOc1ccc2[nH]c3c([N+](=O)[O-])ccc(NCCNCCO)c3c(=O)c2c1.CS(=O)(=O)O [Example 17, 7-Ethoxy-1-[[2-[(2-hydroxyethyl)amino]ethyl]amino]-4-nitro-9(10H)-acridinone, methanesulfonate] | < 0.46 | 1.4 | 6.74 | < 0.46 | 1.4 | 6.92 | 4.1 | – | – | – | 124 | 138 | – | – | –
